7 compounds from the supplement of paper PMC11061612 can be followed below.

Assay in all cases: Bliss excess, mean over the matrix (fraction); higher = more synergy
Test [1] concerns ML-2 (Acute Myeloid Leukemia). In outline: (§1)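 Bliss excess equals the observed combination effect minus the expected value EA + EB − EA·EB, where EA and EB are the effects of each agent alone. Combination Emax is the second-highest inhibition within the matrix. Inhibition was scaled from CellTiter-Glo 2.0 luminescence, with 0 set by vehicle wells and 1 by blank wells, after 72 hours of two-drug dosing of cells plated in 1536-well plates.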

Test [2] concerns NCI-H522 (Lung Adenocarcinoma). In outline: as §1
The test system of test [3] is OE33 (Esophageal Adenocarcinoma). In outline:
as §1

Test [4] relates to COLO-668 (Small Cell Lung Carcinoma). In short, it runs like this:
as §1

Test [5] deals with G-401 (Other Solid Carcinomas). In short, it runs like this:
as §1

The test system of test [6] is Mo-T (Other Blood Carcinomas). In short, it runs like this:
as §1

The subject of test [7] is MOLT-4 (T-Lymphoblastic Leukemia). In outline:
as §1

The subject of test [8] is MDA-MB-453 (Breast Carcinoma). In short, it runs like this:
as §1

In test [9] the test system is ALL-SIL (T-Lymphoblastic Leukemia). In short, it runs like this: as §1
The subject of test [10] is LC-1-sq (Squamous Cell Lung Carcinoma). In outline:
as §1

Test [11] deals with NCI-H650 (Lung Adenocarcinoma). In outline: as §1
Test [12] concerns ME-180 (Cervical Carcinoma). In outline: as §1
In test [13] the test system is NCI-H2122 (Lung Adenocarcinoma). In outline:
as §1

Test [14] concerns HCC1500 (Breast Carcinoma). In outline: as §1
Test [15] has as its system A4-Fuk (B-Lymphoblastic Leukemia). In short, it runs like this:
as §1

For a further test, the system named is SK-N-AS (Neuroblastoma). In short, it runs like this: as §1
In another test the test system is COLO-679 (Melanoma). In outline:
as §1

Test [16] deals with SKN (Other Solid Carcinomas). In outline: as §1
Test [17] relates to NCI-H1355 (Lung Adenocarcinoma). In outline: as §1
In test [18] the test system is NCI-H1838 (Lung Adenocarcinoma). In short, it runs like this: as §1

Molecules are shown by their SMILES.

On to `Cc1c2c(nn1C)CSCc1cc(n(C)n1)CSc1cc(c3ccccc3c1)OCCCc1c(C(=O)O)n(C)c3c-2c(Cl)ccc13` [AZD5991] + Cc1cc2ncnn2cc1Nc1ncc2c(n1)n(C1CCOCC1)c(=O)n2C [AZD7648] (first compound max 1 µM, 7x7, partner max 10 µM), for which the Bliss excess in [1] is -0.0314; in [2] it was -0.0586; in [3], -0.0304; in [4], 0.0003; in [5], -0.167; in [6] it was -0.08. Besides, the Bliss excess is -0.0072 in test [7]; -0.0328 in test [8]; -0.0253 in test [9]; 0.0048 in [10]; -0.0101 in [11]; -0.009 in test [12]. Moreover, the Bliss excess was -0.0559 in test [13]; -0.0471 in [14]; 0.0085 in [15]; -0.0554 in the test with SK-N-AS (Neuroblastoma); 0.0019 in the test with COLO-679 (Melanoma); -0.0386 in test [16]. The Bliss excess is -0.0055 in test [17] and -0.0929 in test [18].
With `C[C@@H]1COCCN1c1cc(C2([S@](C)(=N)=O)CC2)nc(-c2ccnc3[nH]ccc23)n1` [AZD6738] + O=C(c1cc(Cc2n[nH]c(=O)c3ccccc23)ccc1F)N1CCN(C(=O)C2CC2)CC1 [Olaparib] (first compound max 10 µM, 7x7, partner max 10 µM), the Bliss excess is -0.0667 in test [1]; 0.0229 in test [2]; -0.0384 in [3]; 0.0193 in test [4]; 0.0454 in test [5]; 0.0311 in test [6]. Further, the Bliss excess in test [7] was 0.0556; in [8], -0.0764; in [9], 0.0291; in [10], 0.0157; in test [11] it was -0.0227; in test [12], 0.0056. Also, the Bliss excess is -0.0303 in test [13]; 0.0412 in test [14]; -0.0081 in test [15]; 0.0223 with SK-N-AS (Neuroblastoma); -0.0163 in the test on COLO-679 (Melanoma); 0.0031 in test [16]. Further, the results for the Bliss excess in test [17] and in test [18] were -0.0357 and -0.138, respectively.
Take `NC1(C(=O)N[C@@H](CCO)c2ccc(Cl)cc2)CCN(c2ncnc3[nH]ccc23)CC1` [Capivasertib] + CC(=O)c1c(C)c2cnc(Nc3ccc(N4CCNCC4)cn3)nc2n(C2CCCC2)c1=O [Palbociclib] (first compound max 10 µM, 7x7, partner max 10 µM): the Bliss excess is -0.0354 in test [1]; -0.0696 in test [2]; -0.0055 in test [3]; -0.0496 in [4]; -0.009 in [5]; -0.0271 in test [6]. For the same compound, the Bliss excess is -0.0002 in test [7]; 0.0753 in test [8]; -0.0889 in test [9]; -0.0208 in [10]; -0.0413 in test [11]; -0.0638 in test [12]. The Bliss excess in test [13] was 0.0338; in test [14] it was 0.0017; in [15], -0.0374; in the test on SK-N-AS (Neuroblastoma) it was -0.0033; in the test with COLO-679 (Melanoma) it was -0.201; in [16], -0.0383. Besides, the values for the Bliss excess in test [17] and in [18] were 0.0107 and 0.0468, respectively.
`NC1(C(=O)N[C@@H](CCO)c2ccc(Cl)cc2)CCN(c2ncnc3[nH]ccc23)CC1` [Capivasertib] + CC(C)n1c(=O)n(C)c2cnc3cc(F)c(-c4ccc(OCCCN5CCCCC5)nc4)cc3c21 [AZD1390] (first compound max 10 µM, 7x7, partner max 0.3 µM): the Bliss excess in test [1] was -0.0296; in test [2] it was -0.0502; in [3] it was -0.0563; in test [4], -0.0298; in test [5], -0.0346; in test [6], -0.0451. The Bliss excess is -0.0083 in [7]; -0.0471 in [8]; -0.0482 in test [9]; -0.0461 in test [10]; -0.0899 in test [11]; -0.033 in [12]. The Bliss excess is -0.0103 in test [13]; -0.0334 in test [14]; -0.0472 in test [15]; -0.0657 in the test with SK-N-AS (Neuroblastoma); -0.116 in the test with COLO-679 (Melanoma); -0.055 in test [16]. The Bliss excess in test [17] is -0.0206; in [18], -0.123.
For the compound `NC1(C(=O)N[C@@H](CCO)c2ccc(Cl)cc2)CCN(c2ncnc3[nH]ccc23)CC1` [Capivasertib] + CCN(CCO)CCCOc1ccc2c(Nc3cc(CC(=O)Nc4cccc(F)c4)[nH]n3)ncnc2c1 [AZD2811] (first compound max 10 µM, 7x7, partner max 1 µM), the Bliss excess in [1] is -0.0094; in test [2] it was -0.0817; in [3], -0.0137; in test [4], 0.0318; in test [5], -0.0072; in [6], -0.0703. For the same compound, the Bliss excess in test [7] is -0.0189; in [8], 0.002; in [9], -0.0631; in [10], 0.0488; in test [11], -0.0281; in test [12], -0.0096. Moreover, the Bliss excess in test [13] was -0.0827; in test [14] it was 0.0228; in test [15], -0.0161; in the test with SK-N-AS (Neuroblastoma), 0.0008; in the test with COLO-679 (Melanoma), -0.2; in test [16], -0.0219. In addition, the Bliss excess was 0.045 in test [17] and -0.0356 in test [18].
As to `NC1(C(=O)N[C@@H](CCO)c2ccc(Cl)cc2)CCN(c2ncnc3[nH]ccc23)CC1` [Capivasertib] + COc1nnc2ccc(N3CCC(c4ccc(OCCN5CCN(C)C(=O)[C@H]5C)cc4)CC3)nn12 [AZD5153] (first compound max 10 µM, 7x7, partner max 1 µM), the Bliss excess in test [1] was -0.0187; in test [2], -0.0698; in test [3], 0.0052; in [4] it was 0.0552; in [5], 0.012; in test [6], -0.0717. Further, the Bliss excess in [7] is 0.0908; in test [8], -0.0148; in test [9], -0.0024; in test [10] it was 0.0814; in test [11], -0.0108; in test [12], -0.051. Moreover, the Bliss excess in [13] was 0.0243; in test [14], 0.0118; in [15], -0.0465; in the test with SK-N-AS (Neuroblastoma) it was -0.0159; in the test on COLO-679 (Melanoma), -0.122; in test [16] it was 0.0238. Further, the figures for the Bliss excess in [17] and in test [18] were 0.0316 and 0.0032, respectively.
For the compound `NC1(C(=O)N[C@@H](CCO)c2ccc(Cl)cc2)CCN(c2ncnc3[nH]ccc23)CC1` [Capivasertib] + C[C@@H]1COCCN1C2=NC(=NC(=C2)C3(CC3)[S@](=N)(=O)C)C4=C5C=CNC5=NC=C4 [AZD6738] (first compound max 10 µM, 7x7, partner max 10 µM), the Bliss excess in test [1] is -0.0241; in test [2], -0.0483; in test [3], -0.0225; in test [4], -0.0501; in test [5], -0.0856; in test [6], 0.0465. Moreover, the Bliss excess is 0.0011 in test [7]; -0.0798 in test [8]; -0.0322 in test [9]; -0.0984 in [10]; -0.0441 in test [11]; -0.066 in test [12]. The Bliss excess in test [13] was -0.0658; in test [14], 0.0226; in test [15], -0.0841; with SK-N-AS (Neuroblastoma) it was -0.0469; in the test with COLO-679 (Melanoma) it was -0.128; in [16], -0.0477. Further, the Bliss excess in test [17] was -0.0317; in [18], -0.0733.
